Like-named read-outs stand apart in the source and are kept apart here.

For 31 compounds, IC50 results are on record in patent US20240417405A1, “Substituted Spiro Derivatives” (Janssen Pharmaceutica NV, priority 2021, published 2024).

Test [1] concerns the target T1, menin/MLL (terbium chelate-labeled menin, FITC-MBM1 peptide) (Homo sapiens, UniProt O00255, T541A).
T1 construct: Menin (a.a 1-610-6xhis tag)
T1 sequence (O00255 with tags, fused parts or gaps T541A): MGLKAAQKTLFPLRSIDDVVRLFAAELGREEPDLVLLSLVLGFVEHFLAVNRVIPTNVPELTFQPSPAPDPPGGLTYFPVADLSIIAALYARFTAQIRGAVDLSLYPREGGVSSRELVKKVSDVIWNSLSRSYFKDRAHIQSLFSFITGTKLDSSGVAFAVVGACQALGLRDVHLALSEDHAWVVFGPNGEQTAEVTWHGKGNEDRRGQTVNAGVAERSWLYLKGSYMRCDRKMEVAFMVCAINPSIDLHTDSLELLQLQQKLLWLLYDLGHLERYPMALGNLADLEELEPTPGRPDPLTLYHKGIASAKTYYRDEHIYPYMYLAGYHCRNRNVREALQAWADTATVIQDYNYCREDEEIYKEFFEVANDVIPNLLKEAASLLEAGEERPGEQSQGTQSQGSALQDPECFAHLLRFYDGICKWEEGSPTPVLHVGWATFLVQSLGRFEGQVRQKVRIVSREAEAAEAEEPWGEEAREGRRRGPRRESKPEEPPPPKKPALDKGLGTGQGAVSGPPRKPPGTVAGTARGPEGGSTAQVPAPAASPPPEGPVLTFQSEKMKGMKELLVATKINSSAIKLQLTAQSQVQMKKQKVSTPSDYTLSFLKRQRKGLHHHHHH
Description: Menin/MLL homogenous time-resolved fluorescence (HTRF) assay. It counts as binding. The note with it: 30 min incubation. The gist of the method: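 Compounds were preincubated 30 min at ambient temperature with 200 pM terbium-labeled menin (aa 1-610, His-tagged) in Tris pH 7.5 buffer with DTT and Pluronic, then 75 nM FITC-MBM1 peptide added for 15 min. HTRF ratio 520/490 nm gave % inhibition; IC50 from four-parameter fit, floor 0.1 nM.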
For orientation: In TR-FRET formats the signal depends on donor and acceptor labels being close together.

For test [2], the system named is MOLM14 cells. Description: Proliferation assay, spheroid-like growth, MOLM14 (MLL-AF9 rearranged). In kind it is cell-based, human. The note with it: 8 days, confluence as measure of spheroid size, read-out: spheroid assay_OneTime MOLM14 IC50. The procedure, abridged:
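IC50 derived from a variable-slope dose-response fit of percent confluence change, with DMSO-treated cells as high control and high-dose reference compound as low control. Spheroid-like growth of MOLM14 (200 cells/well) or KO-52 (300 cells/well) in ultra-low attachment plates, 8 days, 37° C, 5% CO2, DMSO normalised to 0.3%, imaged at day 8.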

Usually IC50 stands for the concentration that gives 50% inhibition. Regarding `CNC(=O)c1coc(N[C@H]2C[C@@H](C(C)N3CC4(CCN(c5ncnnc5Oc5ccc(F)cc5-c5cncnc5C5CC5)C4)C3)C2)n1` (single isomer, unassigned) [Compound 461], the IC50 amounted to 0.2 nM in test [1] and 63 nM in test [2] (Homo sapiens, MOLM-14, 192 h).
On the same counts, the results for `CC(C)[C@H]([C@H]1C[C@@H](Nc2ccc3[nH]c(=O)[nH]c3c2)C1)N1CC2(CCN(c3ncnnc3Oc3ccc(F)cc3-c3cncnc3C3CC3)C2)C1` (single isomer, unassigned) [Compound 462] are 0.27 nM and 89 nM.
For `CC(C)[C@H]([C@H]1C[C@@H](Nc2ccnc(N)n2)C1)N1CC2(CCN(c3ncnnc3Oc3ccc(F)cc3-c3cncnc3C3CC3)C2)C1` (single isomer, unassigned) [Compound 463], in that order: 0.082 nM and 29 nM.
For `CCOC(=O)c1coc(N[C@H]2C[C@@H]([C@@H](C(C)C)N3CC4(CCN(c5ncnnc5Oc5ccc(F)cc5-c5cncnc5C5CC5)C4)C3)C2)n1` (single isomer, unassigned) [Compound 480], in that order: 0.15 nM and 6 nM.
Take `CCOC(=O)c1nnc(N[C@H]2C[C@@H](C(C(C)C)N3CC4(CCN(c5ncnnc5Oc5ccc(F)cc5-c5cncnc5C5CC5)C4)C3)C2)o1` (single isomer, unassigned) [Compound 481]: the IC50 is 0.14 nM in test [1] and more than 940 nM in test [2] (Homo sapiens, MOLM-14, 192 h).
On to `CCOC(=O)c1nnc(N[C@H]2C[C@@H](C(C(C)C)N3CC4(CCN(c5ncnnc5Oc5ccc(F)cc5-c5cncnc5C5CC5)C4)C3)C2)s1` (single isomer, unassigned) [Compound 482], for which the IC50 in test [1] was determined as 0.18 nM; in test [2] (Homo sapiens, MOLM-14, 192 h) it was 15 nM.
Consider `CCOC(=O)c1sc(N[C@H]2C[C@@H](C(C(C)C)N3CC4(CCN(c5ncnnc5Oc5ccc(F)cc5-c5cncnc5C5CC5)C4)C3)C2)nc1C` (single isomer, unassigned) [Compound 483], for which the IC50 in test [1] is 0.07 nM; in test [2] (Homo sapiens, MOLM-14, 192 h) it was 17 nM.
For `CC(C)C([C@H]1C[C@@H](Nc2nnc(N)s2)C1)N1CC2(CCN(c3ncnnc3Oc3ccc(F)cc3-c3cncnc3C3CC3)C2)C1` (single isomer, unassigned) [Compound 488], in that order: 0.15 nM and 4 nM.
On the same counts, the results for `CC(C)C([C@H]1C[C@@H](NC(=O)OC(C)(C)C)C1)N1CC2(CCN(c3ncnnc3Oc3ccc(F)cc3-c3cncnc3C3CC3)C2)C1` (single isomer, unassigned) [Compound 491a] are 0.13 nM and 4.9 nM.
On the same counts, the results for `CC(C)C([C@H]1C[C@@H](N2CC3(COC3)C2)C1)N1CC2(CCN(c3ncnnc3Oc3ccc(F)cc3-c3ncc(C#N)cc3C3CC3)C2)C1` (some centres unmarked) [Compound 140] are 0.5 nM and 42 nM.
For `CC(=O)N1CCN([C@H]2C[C@@H](C(C(C)C)N3CC4(CCN(c5ncnnc5Oc5ccc(F)cc5-c5cnc(C#N)nc5C5CC5)C4)C3)C2)CC1` (some centres unmarked) [Compound 169], the IC50 in test [1] amounted to 0.5 nM; in test [2] (Homo sapiens, MOLM-14, 192 h), 51 nM.
For `CC(=O)N[C@H]1C[C@@H](C(C(C)C)N2CC3(CCN(c4ncnnc4Oc4ccc(F)cc4-c4nnccc4C4CC4)C3)C2)C1` (some centres unmarked) [Compound 183], in that order: 0.4 nM and 160 nM.
For `CC(C)C([C@H]1C[C@@H](Nc2ncccn2)C1)N1CC2(CCN(c3ncnnc3Oc3ccc(F)cc3-c3cncnc3C3CC3)C2)C1` (some centres unmarked) [Compound 192], in that order: 4.8 nM and 1040 nM.
Take `CC(=O)N1CC2CN([C@H]3C[C@@H]([C@H](C(C)C)N4CC5(CCN(c6ncnnc6Oc6ccc(F)cc6-c6cnc(C)nc6C6CC6)C5)C4)C3)CC2C1` (some centres unmarked) [Compound 375]: the IC50 in test [1] was 0.055 nM; in test [2] it was 4 nM.
As for `CC(=O)N1CC2CN([C@H]3C[C@H]([C@H](C(C)C)N4CC5(CCN(c6ncnnc6Oc6ccc(F)cc6-c6cnc(C)nc6C6CC6)C5)C4)C3)CC2C1` (some centres unmarked) [Compound 376], the IC50 in test [1] was 0.62 nM; in test [2] (Homo sapiens, MOLM-14, 192 h), 100 nM.
For `CC(=O)N1CC2CN([C@H]3C[C@@H]([C@H](C(C)C)N4CC5(CCN(c6ncnnc6Oc6ccc(F)cc6-c6cnc(C)nc6C6CC6)C5)C4)C3)CC2C1` (some centres unmarked) [Compound 378], the figures for the IC50 in test [1] and in test [2] were 0.106 nM and 1.6 nM, respectively.
With `Cc1ncc(-c2cc(F)ccc2Oc2nncnc2N2CCC3(C2)CN([C@@H](C(C)C)[C@H]2C[C@@H](N4CCC5(CN(C(=O)C6CC6)C5)C4)C2)C3)c(C2CC2)n1` [Compound 380], the IC50 in test [1] amounted to 0.16 nM; in test [2] (Homo sapiens, MOLM-14, 192 h) it was 3.7 nM.
For `CC(=O)N1CC2(CCN([C@H]3C[C@@H]([C@H](C(C)C)N4CC5(CCN(c6ncnnc6Oc6ccc(F)cc6-c6cnc(C)nc6C6CC6)C5)C4)C3)C2)C1` [Compound 381], in that order: 0.14 nM and 8.1 nM.
Turning to `Cc1ncc(-c2cc(F)ccc2Oc2nncnc2N2CCC3(C2)CN([C@@H](C(C)C)[C@H]2C[C@@H](N4CCC5(COC5)C4)C2)C3)c(C2CC2)n1` [Compound 382], the IC50 was found to be 0.08 nM in test [1] and 7 nM in test [2] (Homo sapiens, MOLM-14, 192 h).
As for `Cc1ncc(-c2cc(F)ccc2Oc2nncnc2N2CCC3(C2)CN([C@@H](C(C)C)[C@H]2C[C@@H](N4CC[C@H](C(=O)N(C)C)C4)C2)C3)c(C2CC2)n1` [Compound 383], the IC50 stood at 0.04 nM in test [1] and 2.3 nM in test [2] (Homo sapiens, MOLM-14, 192 h).
In the case of `Cc1ncc(-c2cc(F)ccc2Oc2nncnc2N2CCC3(C2)CN([C@@H](C(C)C)[C@H]2C[C@@H](N4CC[C@H](C(=O)NC5CC5)C4)C2)C3)c(C2CC2)n1` [Compound 384], the IC50 was determined as 0.085 nM in test [1] and 0.7 nM in test [2] (Homo sapiens, MOLM-14, 192 h).
For `Cc1ncc(-c2cc(F)ccc2Oc2nncnc2N2CCC3(C2)CN([C@@H](C(C)C)[C@H]2C[C@@H](N4C[C@@H]5[C@H](C4)[C@H]5NC(=O)C4CC4)C2)C3)c(C2CC2)n1` [Compound 385], in that order: 0.026 nM and less than 1.8 nM.
On the same counts, the results for `Cc1ncc(-c2cc(F)ccc2Oc2nncnc2N2CCC3(C2)CN([C@@H](C(C)C)[C@H]2C[C@@H](N4CC[C@@H](NC(=O)C5CC5)C4)C2)C3)c(C2CC2)n1` [Compound 386] are 0.059 nM and less than 1.8 nM.
Turning to `Cc1ncc(-c2cc(F)ccc2Oc2nncnc2N2CCC3(C2)CN([C@@H](C(C)C)[C@H]2C[C@@H](N4CC[C@H](NC(=O)C5CC5)C4)C2)C3)c(C2CC2)n1` [Compound 387], the IC50 is 0.026 nM in test [1] and less than 1.8 nM in test [2] (Homo sapiens, MOLM-14, 192 h).
For `CC(=O)N[C@H]1CCN([C@H]2C[C@@H]([C@H](C(C)C)N3CC4(CCN(c5ncnnc5Oc5ccc(F)cc5-c5cnc(C)nc5C5CC5)C4)C3)C2)C1` [Compound 388], in that order: 0.027 nM and less than 1.8 nM.
On the same counts, the results for `CC(=O)N[C@@H]1CCN([C@H]2C[C@@H]([C@H](C(C)C)N3CC4(CCN(c5ncnnc5Oc5ccc(F)cc5-c5cnc(C)nc5C5CC5)C4)C3)C2)C1` [Compound 389] are 0.046 nM and 2 nM.
On the same counts, the results for `CC(=O)N[C@H]1[C@@H]2CN([C@H]3C[C@@H]([C@H](C(C)C)N4CC5(CCN(c6ncnnc6Oc6ccc(F)cc6-c6cnc(C)nc6C6CC6)C5)C4)C3)C[C@@H]21` [Compound 390] are 0.18 nM and 4 nM.
As for `Cc1ncc(-c2cc(F)ccc2Oc2nncnc2N2CCC3(C2)CN([C@@H](C(C)C)[C@H]2C[C@@H](N4CC5(CN(C(=O)C6(F)CC6)C5)C4)C2)C3)c(C2CC2)n1` [Compound 391], the concentration for half-maximal inhibition (IC50) is 0.057 nM in test [1] and less than 1.8 nM in test [2] (Homo sapiens, MOLM-14, 192 h).
On the same counts, the results for `Cc1ncc(-c2cc(F)ccc2Oc2nncnc2N2CCC3(C2)CN([C@@H](C(C)C)[C@H]2C[C@@H](N4CC5(CN(C(=O)C6CC6)C5)C4)C2)C3)c(C2CC2)n1` [Compound 392] are 0.11 nM and 2 nM.
For `CNC(=O)[C@H]1CCN([C@H]2C[C@@H]([C@H](C(C)C)N3CC4(CCN(c5ncnnc5Oc5ccc(F)cc5-c5cnc(C)nc5C5CC5)C4)C3)C2)C1` [Compound 393], in that order: 0.13 nM and less than 1.8 nM.
For `CC(=O)N1CC2(C1)CN([C@H]1C[C@@H]([C@H](C(C)C)N3CC4(CCN(c5ncnnc5Oc5ccc(F)cc5-c5cnc(C)nc5C5CC5)C4)C3)C1)C2` [Compound 394], in that order: 0.083 nM and 3 nM.
